The values that follow are results of earlier work, collected in US20140371717A1, “DRUG DELIVERY MEDICAL DEVICE” (Micell Technologies, Inc., priority 2011, published 2014).

Data set [1] addresses FKBP12 (Homo sapiens, UniProt P62942).
The conditions of data set [2]: value in μM.

FKBP12, sequence (P62942 whole entry, species assumed): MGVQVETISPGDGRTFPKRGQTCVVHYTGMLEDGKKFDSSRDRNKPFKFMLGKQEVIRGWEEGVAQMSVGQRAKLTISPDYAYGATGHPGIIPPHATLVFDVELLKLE

For `CO[C@H]1C[C@@H]2CC[C@@H](C)[C@@](O)(O2)C(=O)C(=O)N2CCCC[C@H]2C(=O)O[C@H]([C@H](C)C[C@@H]2CC[C@@H](OC(=O)C(C)(CO)CO)[C@H](OC)C2)CC(=O)[C@H](C)/C=C(\C)[C@@H](O)[C@@H](OC)C(=O)[C@H](C)C[C@H](C)/C=C/C=C/C=C/1C` [Temsirolimus, 42-[3-hydroxy-2-(hydroxymethyl)-2-methylpropanoate]rapamycin], the “FKBP12 binding (nM)” value in data set [1] is recorded as “about the same as Sirolimus”.

On to `CO[C@H]1C[C@@H]2CC[C@@H](C)[C@@](O)(O2)C(=O)C(=O)N2CCCC[C@H]2C(=O)O[C@H]([C@H](C)C[C@@H]2CC[C@H](n3cnnn3)[C@H](OC)C2)CC(=O)[C@H](C)/C=C(\C)[C@@H](O)[C@@H](OC)C(=O)[C@H](C)C[C@H](C)/C=C/C=C/C=C/1C` [Zotarolimus], for which, in data set [1], the “FKBP12 binding” value is 2.0 to 3.2 nM.

In the case of `CC[C@@H]1/C=C(\C)C[C@H](C)C[C@H](OC)[C@H]2O[C@@](O)(C(=O)C(=O)N3CCCC[C@H]3C(=O)O[C@H](/C(C)=C/[C@@H]3CC[C@H](Cl)[C@H](OC)C3)[C@H](C)[C@@H](O)CC1=O)[C@H](C)C[C@@H]2OC` [Pimecrolimus], the “FKBP12 binding (nM)” value in data set [1] is on record as “about 1.2 nM”. Moreover, the “Antiproliferative potency (nM)” value in data set [2] is recorded as “about 1 μM”.

As to `C=CC[C@@H]1/C=C(\C)C[C@H](C)C[C@H](OC)[C@H]2O[C@@](O)(C(=O)C(=O)N3CCCC[C@H]3C(=O)O[C@H](/C(C)=C/[C@@H]3CC[C@@H](O)[C@H](OC)C3)[C@H](C)[C@@H](O)CC1=O)[C@H](C)C[C@@H]2OC` [Tacrolimus], the “FKBP12 binding” value in data set [1] is 0.2 to 0.4 nM.

Consider `CO[C@H]1C[C@@H]2CC[C@@H](C)[C@@](O)(O2)C(=O)C(=O)N2CCCC[C@H]2C(=O)O[C@H]([C@H](C)C[C@@H]2CC[C@@H](OCCO)[C@H](OC)C2)CC(=O)[C@H](C)/C=C(\C)[C@@H](O)[C@@H](OC)C(=O)[C@H](C)C[C@H](C)/C=C/C=C/C=C/1C` [Everolimus, 40-O-(2-Hydroxyethyl)rapamycin], for which, in data set [1], the “FKBP12 binding” value was 1.8 to 2.6 nM.
